Test results reported in ChEMBL document CHEMBL1140620, “Development of integrase inhibitors for treatment of AIDS: an overview” (Eur J Med Chem, 2007).

The compounds below were run against T1, Human immunodeficiency virus type 1 integrase (Human immunodeficiency virus 1, UniProt Q7ZJM1) (assay: Inhibition of HIV1 integrase-mediated 3'-end processing activity).
T1 sequence (Q7ZJM1 whole entry): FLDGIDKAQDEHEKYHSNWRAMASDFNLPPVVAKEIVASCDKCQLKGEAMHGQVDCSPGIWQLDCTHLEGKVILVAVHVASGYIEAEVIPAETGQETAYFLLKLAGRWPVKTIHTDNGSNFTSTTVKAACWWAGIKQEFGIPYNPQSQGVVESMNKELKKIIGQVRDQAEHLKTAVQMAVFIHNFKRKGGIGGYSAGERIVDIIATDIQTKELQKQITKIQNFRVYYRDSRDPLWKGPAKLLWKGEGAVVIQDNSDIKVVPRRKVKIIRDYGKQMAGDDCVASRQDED

Row | IC50 [nM] | Compound
1 | 200 | O=C(O)C(=O)CC(=O)c1cc(OCc2ccccc2)cc(OCc2ccccc2)c1

These compounds were tested against T1, Human immunodeficiency virus type 1 integrase (assay: Inhibition of HIV1 integrase).

Row | IC50 [nM] | Compound
2 | < 10000 | O=C(O)c1cc2cc(O)c(O)cc2[nH]1
3 | 2100 | O=C1C(O)=C(O)C(O)=C2CC(O)=CC=CC12 (stereo not given)

What follows are compounds tested against T1, Human immunodeficiency virus type 1 integrase (assay: Inhibition of HIV1 integrase strand transfer activity).

Row | Compound | IC50 [nM]
4 | O=C(O)C(=O)CC(=O)c1cc(OCc2ccccc2)cc(OCc2ccccc2)c1 | 3500
5 | COc1cccc(CN(Cc2cccc(OC)c2)c2ccc3nc(N)[nH]c3c2)c1 | 1800
6 | N=C(N)c1ccc2cc(C#Cc3cccc(OCc4ccccc4)c3)ccc2c1 | 2100
7 | O=C(c1cc(Cc2ccccc2)cc(CN2CCCS2(=O)=O)c1)c1ncc2cccnc2c1O | 10000
8 | CC(C)(C)C1CCC(C2=NCCc3ccc([C@H]4CC4c4ccc5cc(C(=N)N)ccc5c4)cc32)CC1 (stereo not given in full) | 3400

Second part, the compound after the results:

Row | IC50 [nM] | Compound
9 | 10000 | N#C/C(=C(/O)C(=O)O)c1cn(-c2ccc(F)cc2)c2ccccc12
10 | 2600 | CC(C)S(=O)(=O)Nc1ccc2nc(N)[nH]c2c1

These compounds were tested on Human immunodeficiency virus 1 (assay: Antiviral activity against human immunodeficiency virus 1 in cell culture).
Type: functional, organism-based

Row | EC50 [nM] | Compound | IC95 [nM]
11 | 0.9 | COc1cc2c(cc1Cc1cccc(Cl)c1F)c(=O)c(C(=O)O)cn2[C@H](CO)C(C)C | –
12 | – | O=C(CC(=O)c1ccc(Cc2ccc(F)cc2)o1)c1nc[nH]n1 | 12000
13 | – | O=C(NCc1ccc(F)cc1)c1nc(N2CCCCS2(=O)=O)c2cccnc2c1O | 100
14 | 1500 | O=C(/C=C/c1cccn1Cc1ccccc1)CC(=O)C(=O)O | –
15 | – | O=C(O)C(=O)CC(=O)c1cccn1Cc1ccc(F)cc1 | 100
